Results as given in PMC8752738, “A propolis-derived small molecule ameliorates metabolic syndrome in obese mice by targeting the CREB/CRTC2 transcriptional complex” (Nature Communications, 2022).
Values joined by “and” are separate entries in the source; they are usually repeats but may differ in a detail not shown here. Identical values can stand only once.

System: tissue mRNA levels
Assay: Quantitative PCR of tissue gene expression in treated mice
Assay type: in vivo, mouse
Set-up: key to mRNA levels Scap / mRNA levels Insig1 / mRNA levels Ldlr / mRNA levels Mttp / mRNA levels Atgl / mRNA levels Tnfaip2 / mRNA levels Rxra / mRNA levels Srebf1 / mRNA levels Ucp2: mRNA level normalized to ribosomal L32 mRNA (internal control)
Details: for relative mRNA levels SREBP1a, group mean (Mean 2) / relative mRNA levels SREBP2, group mean (Mean 2) / relative mRNA levels SREBP1c, group mean (Mean 2) / relative mRNA levels Srebf-1a / relative mRNA levels Srebf-1c / relative mRNA levels Srebf-2: Figure 6a; for relative mRNA levels SREBP1a, group mean (Mean 2) / relative mRNA levels SREBP2, group mean (Mean 2) / relative mRNA levels SREBP1c, group mean (Mean 2): N=6; for relative mRNA levels SREBP1a, group mean (Mean 2): VEH mean 0.9485; for relative mRNA levels SREBP2, group mean (Mean 2): VEH mean 1.001; for relative mRNA levels SREBP1c, group mean (Mean 2): VEH mean 1.004; for relative mRNA levels Srebf-1a / relative mRNA levels Srebf-1c / relative mRNA levels Srebf-2: relative to VEH
Experimental: Total RNA from cells and tissues was extracted by Trizol (Invitrogen) and reverse-transcribed into cDNA using the prime script RT reagent kit with gDNA eraser (Takara). The mRNA levels were determined using the SYBR-green PCR kit (Takara) with ABIPRISM 7900HT Sequence detector (ABI) according to the manufacturer’s protocol. The quantitative qPCR primers used in this work are listed in Supplementary Table 1. Ribosomal L32 mRNA levels were used as an internal control.

[1] = DIO mice, i.p. 20 mg/kg, 5 weeks
[2] = APC 10mg/kg, individual animals
[3] = APC 20mg/kg, individual animals
[4] = Figure 6c, liver of DIO mice, individual animals

Q: How did the “mRNA levels of CREB/CRTC2 regulated genes in muscle, brain, spleen, kidney, small intestine, pancreas” value (C57 WT mice, one oral dose 20 mg/kg) turn out when `CC(C)=CCc1cc(C=CC(=O)O)cc(CC=C(C)C)c1O` [APC, 3,5-diprenyl-4-hydroxycinnamic acid] was run?
A: The value was “did not significantly affect”.

Q: What about the “Mean Diff. (Veh. vs. treated; head of the quantity not shown, section just before Figure 7h)” value (CRTC2KO mice, Met 200mg/kg or APC-20) of the same compound?
A: The value was -0.1036.

Q: What about the “hepatic mRNA levels of G6pc, Pck1 and Pgc-1α” value (DIO and db/db mice, i.p. 20 mg/kg, 5 weeks) of the same compound?
A: The value was “remarkably reduced”.

Q: And the “Pgc-1α and Pgc-1β expression in liver, white and brown adipose tissues” value (DIO mice)?
A: Its value is “significantly reduced”.

Q: And the “hepatic mRNA levels of SREBP target genes” value (DIO mice)?
A: The value was “reduced”.

Q: And the “liver mRNA levels of Lxra” value [1]?
A: The value was “decreased”.

Q: And the “liver mRNA levels of Pparα, Pparγ and Rxrα” value [1]?
A: The value was “little effect”.

Q: What about the “hepatic mRNA levels of Srebp-1a, 1c and 2” value (DIO mice, i.p. 5 weeks) of the same compound?
A: Its value is “significantly decreased”.

Q: What about the “relative mRNA levels SREBP1a, group mean (Mean 2)” value (APC 10mg/kg) of the same compound?
A: The value was 0.6192.

Q: What about the “relative mRNA levels SREBP2, group mean (Mean 2)” value (APC 10mg/kg) of the same compound?
A: The value was 0.7198.

Q: What about the “relative mRNA levels SREBP1c, group mean (Mean 2)” value (APC 10mg/kg) of the same compound?
A: Its value is 0.5199.

Q: What about the “relative mRNA levels Srebf-1a” value [2] of the same compound?
A: The value was 0.7632 and 0.606 and 0.6752 and 0.5408 and 0.5316 and 0.5987.

Q: And the “relative mRNA levels Srebf-1c” value [2]?
A: Its value is 0.3899 and 0.7333 and 0.3575 and 0.4477 and 0.6292 and 0.5618.

Q: What about the “relative mRNA levels Srebf-2” value [2] of the same compound?
A: Its value is 0.89 and 0.7028 and 0.7151 and 0.6142 and 0.6241 and 0.7725.

Q: What about the “relative mRNA levels SREBP1a, group mean (Mean 2)” value (APC 20mg/kg) of the same compound?
A: The value was 0.576.

Q: And the “relative mRNA levels SREBP2, group mean (Mean 2)” value (APC 20mg/kg)?
A: The value was 0.6534.

Q: And the “relative mRNA levels SREBP1c, group mean (Mean 2)” value (APC 20mg/kg)?
A: Its value is 0.4898.

Q: And the “relative mRNA levels Srebf-1a” value [3]?
A: Its value is 0.7402 and 0.4743 and 0.5973 and 0.6221 and 0.5888 and 0.4336.

Q: What about the “relative mRNA levels Srebf-1c” value [3] of the same compound?
A: The value was 0.4905 and 0.5691 and 0.5139 and 0.3623 and 0.4504 and 0.5527.

Q: And the “relative mRNA levels Srebf-2” value [3]?
A: Its value is 0.7803 and 0.8192 and 0.5739 and 0.6729 and 0.5114 and 0.5627.

Q: And the “mRNA levels Pgc-1a, Mean of APC” value (Figure 6c, liver of DIO mice, group mean, Mean of VEH 0.9497)?
A: The value was 0.7169.

Q: What about the “mRNA levels Hmgcs, Mean of APC” value (Figure 6c, liver of DIO mice, group mean, Mean of VEH 0.9581) of the same compound?
A: The value was 0.6963.

Q: What about the “mRNA levels Pgc-1b, Mean of APC” value (Figure 6c, liver of DIO mice, group mean, Mean of VEH 0.9596) of the same compound?
A: Its value is 0.6511.

Q: And the “mRNA levels Acl, Mean of APC” value (Figure 6c, liver of DIO mice, group mean, Mean of VEH 0.9821)?
A: Its value is 0.5548.

Q: What about the “mRNA levels Insig1, Mean of APC” value (Figure 6c, liver of DIO mice, group mean, Mean of VEH 0.983) of the same compound?
A: Its value is 1.256.

Q: What about the “mRNA levels Ldlr, Mean of APC” value (Figure 6c, liver of DIO mice, group mean, Mean of VEH 0.9914) of the same compound?
A: The value was 0.5526.

Q: And the “mRNA levels ApoE, Mean of APC” value (Figure 6c, liver of DIO mice, group mean, Mean of VEH 0.9918)?
A: Its value is 0.7552.

Q: And the “mRNA levels Acsl1, Mean of APC” value (Figure 6c, liver of DIO mice, group mean, Mean of VEH 0.995)?
A: The value was 0.6996.

Q: And the “mRNA levels Insig2b, Mean of APC” value (Figure 6c, liver of DIO mice, group mean, Mean of VEH 1.003)?
A: The value was 1.315.

Q: And the “mRNA levels Lxra, Mean of APC” value (Figure 6c, liver of DIO mice, group mean, Mean of VEH 1.007)?
A: Its value is 0.5396.

Q: What about the “mRNA levels Cel, Mean of APC” value (Figure 6c, liver of DIO mice, group mean, Mean of VEH 1.031) of the same compound?
A: The value was 2.279.

Q: What about the “mRNA levels Acc, Mean of APC” value (Figure 6c, liver of DIO mice, group mean, Mean of VEH 1.033) of the same compound?
A: Its value is 0.6639.

Q: And the “mRNA levels Pcsk9, Mean of APC” value (Figure 6c, liver of DIO mice, group mean, Mean of VEH 1.034)?
A: The value was 0.8062.

Q: And the “mRNA levels Cpt1, Mean of APC” value (Figure 6c, liver of DIO mice, group mean, Mean of VEH 1.037)?
A: The value was 2.106.

Q: And the “mRNA levels Mttp, Mean of APC” value (Figure 6c, liver of DIO mice, group mean, Mean of VEH 1.041)?
A: Its value is 0.553.

Q: What about the “mRNA levels Scd1, Mean of APC” value (Figure 6c, liver of DIO mice, group mean, Mean of VEH 1.044) of the same compound?
A: Its value is 1.532.

Q: And the “mRNA levels Lipg, Mean of APC” value (Figure 6c, liver of DIO mice, group mean, Mean of VEH 1.051)?
A: Its value is 1.548.

Q: What about the “mRNA levels ApoB, Mean of APC” value (Figure 6c, liver of DIO mice, group mean, Mean of VEH 1.052) of the same compound?
A: The value was 0.8089.

Q: What about the “mRNA levels Hmgcl, Mean of APC” value (Figure 6c, liver of DIO mice, group mean, Mean of VEH 1.059) of the same compound?
A: The value was 0.5112.

Q: And the “mRNA levels Scap, Mean of APC” value (Figure 6c, liver of DIO mice, group mean, Mean of VEH 1.06)?
A: Its value is 0.7595.

Q: And the “mRNA levels Mgll, Mean of APC” value (Figure 6c, liver of DIO mice, group mean, Mean of VEH 1.072)?
A: The value was 1.87.

Q: What about the “mRNA levels Fasn, Mean of APC” value (Figure 6c, liver of DIO mice, group mean, Mean of VEH 1.142) of the same compound?
A: The value was 0.5649.

Q: What about the “mRNA levels Acc” value [4] of the same compound?
A: Its value is 0.6012 and 0.6553 (2×) and 0.7255 and 0.7608 and 0.5855.

Q: What about the “mRNA levels Acl” value [4] of the same compound?
A: Its value is 0.303 and 0.3204 and 0.7174 and 0.7065 and 0.7574 and 0.524.

Q: What about the “mRNA levels Acsl1” value [4] of the same compound?
A: Its value is 0.5351 and 0.5673 and 0.8699 and 0.7501 and 0.6417 and 0.8334.

Q: And the “mRNA levels ApoB” value [4]?
A: The value was 0.8489 and 0.8438 and 0.8351 and 0.7306 and 0.803 and 0.7922.

Q: And the “mRNA levels ApoE” value [4]?
A: The value was 0.7234 and 0.6714 and 0.8902 and 0.7927 and 0.794 and 0.6594.

Q: What about the “mRNA levels Cel” value [4] of the same compound?
A: The value was 1.61 and 1.758 and 2.648 and 2.653 and 2.573 and 2.434.

Q: And the “mRNA levels Cpt1” value [4]?
A: The value was 2.1427 and 2.6 and 2.578 and 1.766 and 1.996 and 1.554.

Q: And the “mRNA levels Fasn” value [4]?
A: Its value is 0.5582 and 0.6145 and 0.8825 and 0.8943 and 0.221 and 0.219.

Q: And the “mRNA levels Hmgcl” value [4]?
A: Its value is 0.8031 and 0.3302 and 0.7226 and 0.5347 and 0.468 and 0.2089.

Q: And the “mRNA levels Hmgcs” value [4]?
A: The value was 0.6002 and 0.7721 and 0.6122 and 0.7412 and 0.7304 and 0.7219.

Q: What about the “mRNA levels Insig1” value [4] of the same compound?
A: Its value is 1.154 and 1.297 and 1.198 and 1.324 and 1.22 and 1.341.
